Measured values reported in patent US20120039816A1, “USE OF 7-CHLORO-N,N,5-TRIMETHYL-4-OXO-3-PHENYL-3,5-DIHYDRO-4H-PYRIDAZINO[4,5-B] INDOLE-1-ACETAMIDE AS A BIOMARKER OF PERIPHERAL BENZODIAZEPINE RECEPTOR LEVELS” (SANOFI-AVENTIS, priority 2008, published 2012).

Tests used:
[1] = molecular target: T1, PBR (Homo sapiens, UniProt P30536); details: in vitro and in vivo; cited from earlier work
[2] = molecular target: T2, PBR (peripheral benzodiazepine receptor) (Rattus norvegicus, UniProt P16257); assay: MicroPET imaging in AMPA-lesioned rat model of neuroinflammation; type: in vivo, Wistar rats
T2 construct: lesioned striatum of AMPA-injected rats (the region in which PBR expression is induced); from tissue; host or cells: brain (AMPA-lesioned and intact striatum) of Wistar rats, imaged in vivo or cut into 20 µm sections
Method: Wistar rats (average body weight 300 g, centre d'Élevage René Janvier, France) were kept in thermoregulated, humidity controlled facilities under a 12 h/12 h light/dark cycle (light on between 7 h AM and 7 h PM) and were allowed free access to food and water. […] AMPA (0.5 μL) was injected into the right striatum (Bregma+0.7 mm, from sagittal suture: 2.7 mm, depth from brain surface: 5.5 mm).
(§1) MicroPET imaging was performed 7 days post-AMPA injection in rats and in 11-12 month old transgenic mice. In both mice and rats, anaesthesia was induced by isoflurane 5%, and thereafter maintained by 2-2.5% of isoflurane in a mixture of 70%/30% […]. […] Mice were placed on a bed equipped with an anaesthetic mask allowing heating of the air flow and the rectal temperature was monitored using the Homeothermic Blanket Control Unit.
(§2) In rats, radiolabelled compounds and unlabelled ligands were injected in the caudal vein with the use of 24 gauge catheter. Radiolabelled compounds were injected concomitantly at the start of the PET acquisition and unlabelled compounds were injected 20 min after injection of radiotracers. PET data were acquired for 80 min. In mice, radiolabelled compounds were injected in the caudal vein using 28 gauge needles immediately before the PET scan initiation. PET data were acquired for 60 min.
(§3) PET image analysis was performed using ASIPro VM™ (CTI Concorde Microsystems' Analysis Tools and System Setup/Diagnostics Tool) and Brainvisa/Anatomist (http://brainvisa.info/).

[3] = system: PBR; assay: PET imaging in quinolinic acid primate model of neuroinflammation; type: in vivo, Cynomolgus macaques (Macaca fascicularis)
Method: Cynomolgus macaques (Macaca fascicularis) weighing 4-5 kg were housed in thermoregulated, humidity controlled facilities under a 12 h/12 h light/dark cycle (light on between 7 h a.m. and 7 h p.m.) and were allowed free access to food and water. Neuroinflammation was induced by local sterotaxic injections of quinolinic acid (quinolinic acid, Sigma, St. Louis, Mo.; dissolved in 0.1 M PBS, pH 7.2) into the primate striatum (1 injection site into caudate and 2 injection sites into the putamen) during two different surgical interventions where quinolinic acid was injected into one hemisphere on day 1 and the second hemisphere 2 weeks or 7 months later (FIGS. 8 and 9). During each surgical session the animals received 60 nmol of quinolinic acid distributed over three different striatal sites, one 5 μL site in the caudate and two 10 μL sites in the putamen using a 10 μL-Hamilton syringe attached to a 26-gauge needle. […] The excitotoxin was injected at a rate of 0.1 μL/min and the injection syringe left in place for an additional 5 min to avoid backflow of the toxin. Throughout the surgery, the primate temperature was maintained normothermic (rectal temperature, 36° C.±0.6° C., mean±SD). After removing the needle, the skin was sutured and the animals were allowed to recover from anesthesia and returned to their cages when fully awake.
Imaging sessions were performed before and at various times after quinolinic acid injection (24 hrs, 48 hrs, 9 days, 16 days and 7 months post lesion).
One hour before PET imaging, animals were anaesthetized by intramuscular injection of a ketamine/xylazine mixture (15 mg/kg/1.5 mg/kg) and intubated. Catheters were then placed in a saphenous vein for radiotracer injection and in a femoral artery for blood sampling. Animals were maintained anaesthetized by an intravenous injection of propofol (Diprivan® 1%; 0.05 mg·kg^−1·min^−1).
To ensure correct positioning of the animal in the apparatus, the animal's head was secured in a home-made stereotactic frame. PET scans were performed using the high-resolution Focus micro-PET (CTI-Siemens, Knoxville, Tenn.), which acquires 95 contiguous planes simultaneously. For attenuation correction, a transmission scan was first performed using a ^68Ge rotating rod source.
as §3

[4] = molecular target: PBR (Rattus norvegicus, UniProt P16257); details: excess unlabelled PK11195 (23 μM) or A (22 μM), FIG. 5
[5] = Metabolite analysis in rat blood and brain; type: in vivo, Wistar rats
Method: A blood sample was collected and plasma isolated by centrifugation (5 min, 3000 rpm). Plasma proteins were precipitated from 400 μL of serum by addition of 400 μL of acetonitrile. After centrifugation (5 min, 3000 rpm), the supernatant was injected onto the HPLC column. Rat brains were removed and hemispheres were separated. Homogenisation by sonication was performed in 1 mL of acetonitrile per hemisphere. After a rapid centrifugation, the supernatant was separated from the pellet and concentrated under reduced pressure before injection onto the HPLC (see radiochemistry section for HPLC conditions).

[6] = molecular target: T3, PBR (Mus musculus, UniProt P50637); assay: MicroPET imaging in APP×PS1 and PS1 transgenic mice; type: in vivo; details: for uptake in APP×PS1 vs wild type PS1: whole brain, 11-12 month old mice, PET
T3 construct: from tissue; host or cells: brain of PS1 and APPxPS1 transgenic mice, imaged in vivo at 11-12 months or cut into sections at 20-23 months
From the text: Generation and characterization of single PS1M146L (PS1) and double APP751SL×PS1M146L (APP×PS1) transgenic mice were achieved, as described previously (Blanchard, V. et al. (2003) Exp. Neurol. 184: 247-263). In these animals APP is expressed at a high level in all cortical neurons under the control of the Thy-1 promoter. Human PS1 with the M146L mutation is expressed under the control of the HMG-CoA reductase promoter. […] Both single PS1 and double APP×PS1 mice, provided by Sanofi-Aventis, were used for PET imaging at the age of 11-12 months and autoradiography at 20-23 months.
as §1, §2, §3

[7] = molecular target: T1, PBR; details: PET ligand; cited from earlier work
[8] = systemic, large excess (1 mg/kg), 30 min after radiotracer injection (FIG. 9)

T1 sequence (P30536 whole entry, species assumed): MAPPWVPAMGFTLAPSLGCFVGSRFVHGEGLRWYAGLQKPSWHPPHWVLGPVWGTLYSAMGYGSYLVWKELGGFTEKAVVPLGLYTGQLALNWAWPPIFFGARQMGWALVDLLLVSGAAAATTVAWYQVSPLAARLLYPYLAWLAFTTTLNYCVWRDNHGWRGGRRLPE

Structure (SMILES): CN(C)C(=O)Cc1nn(-c2ccccc2)c(=O)c2c1c1ccc(Cl)cc1n2C [A, 7-chloro-N,N,5-trimethyl-4-oxo-3-phenyl-3,5-dihydro-4H-pyridazino[4,5-b]indole-1-acetamide]
- affinity for the PBR [1]: high affinity

Structure (SMILES): CCC(C)N(C)C(=O)c1cc2ccccc2c(-c2ccccc2Cl)n1 (stereo not drawn) [PK11195]
- effect of unlabelled compound on [^11C]-A binding in the controlateral side ([2]; 1 mg/kg i.v., 20 min post [^11C]-A injection): small increase
- effect of unlabelled compound on brain uptake of [^11C]-A in lesioned striatum ([2]; 1 mg/kg i.v., 20 min post [^11C]-A injection (FIG. 3, 4)): significantly reduced
- effect of excess unlabelled compound on [^11C]-A binding in lesioned striatum [3, 8]: specific displacement
- effect of excess unlabelled compound on [^11C]-A binding in non-lesioned control brain regions [3, 8]: no noticeable changes
- effect of excess unlabelled ligand on ipsilateral to contralateral ratio of [^11C]-A binding [4]: abolished

Structure (SMILES): CN(C)C(=O)Cc1nn(-c2ccccc2)c(=O)c2c1c1ccc(Cl)cc1n2[11CH3] [[^11C]-A, 7-Chloro-N,N-dimethyl-5-[^11C]methyl-4-oxo-3-phenyl-3,5-dihydro-4H-pyridazino[4,5-b]indole-1-acetamide]
- metabolites present in brain ([5]; rats, 10, 20 and 30 min after [^11C]-A injection (FIG. 10)): essentially detected the parent compound only
- metabolites present in blood and plasma ([5]; rats, 10 and 20 min after [^11C]-A injection (FIG. 10)): essentially detected the parent compound only
- uptake in whole brain (cerebellum excluded) compared to [^11C]PK11195 ([6]; APP×PS1 and wild type PS1 transgenic mice, 11-12 months (FIG. 6)): higher
- uptake in APP×PS1 vs wild type PS1 [6]: not significantly higher
- uptake in lesioned striatum ([3]; 7 months after excitotoxin injection, right striatum): returned to baseline levels
- uptake in lesioned right striatum compared to contralateral non-injected striatum and control brain regions (cerebellum, prefrontal cortex) ([3]; 24 hrs after excitotoxin injection (FIG. 8)): significantly higher
- increase in uptake in lesioned striatum ([3]; 48 hrs after excitotoxin injection, left hemisphere): could still be visualized
- time window of increased uptake after lesion ([3]; early phase of neuroinflammation (FIG. 9)): can be visualised from 24 hrs up to 16 days
- uptake in contralateral non-injected striatum ([3]; same level as brain regions of a non-injected primate (FIG. 8)): remained stable

Structure (SMILES): CC[C@@H](C)N([11CH3])C(=O)c1cc2ccccc2c(-c2ccccc2Cl)n1 [[^11C]PK11195, (R)—N—[^11C]Methyl-N-(1-methylpropyl)-1-(2-chlorophenyl)isoquinoline-3-carboxamide]
- R1 ([2]; AMPA-injected rats, PET): 1.10±0.05
- binding potential (BP) ([2]; AMPA-injected rats, PET): 0.66±0.15
- uptake in APP×PS1 vs wild type PS1 [6]: not significantly higher
- brain uptake [7]: relatively low brain uptake
- non-specific binding [7]: high non-specific binding
- signal to noise ratio [7]: poor signal to noise ratio
